In brackets after ≈: the same amount, converted by molar mass. Read-outs that look alike come from different tables or passages of the source.
What was measured:
[1] = test system: HT-29 (colon carcinoma); assay: Cytotoxicity (sulphorhodamine B), cancer cell line, Table 1B; format: cell-based; settings: Homo sapiens, HT-29, 72 h
Protocol: (§1) The cytotoxicities were determined using the sulphorhodamine B assay method (Skehan, P. et al. J. Nat. Canc. Inst. 82, 1107 (1990)).

[2] = test system: 786-0 (renal cell carcinoma); assay: as above; format: cell-based; settings: Homo sapiens, 786-0, 72 h
Protocol: as §1

[3] = test system: NHDF (normal human skin); assay: Cytotoxicity (sulphorhodamine B), normal cell line, Table 1B; format: cell-based; settings: 72 h
Protocol: as §1

[4] = test system: HL-60 (promyel carcinoma); assay: Cytotoxicity (sulphorhodamine B), cancer cell line, Table 1B; format: cell-based; settings: Homo sapiens, HL-60, 72 h
Protocol: as §1

[5] = test system: CHO (Chinese hamster ovary); assay: Cytotoxicity (sulphorhodamine B), normal cell line, Table 1B; format: cell-based; settings: Cricetulus griseus, 72 h
Protocol: as §1

[6] = test system: OVCAR-3 (ovarian carcinoma); assay: Cytotoxicity (sulphorhodamine B), cancer cell line, Table 1B; format: cell-based; settings: Homo sapiens, OVCAR-3, 72 h
Protocol: as §1

[7] = test system: BALB/c 3T3 (normal mouse embryo); assay: Cytotoxicity (sulphorhodamine B), normal cell line, Table 1B; format: cell-based; settings: BALB/c3T3, 72 h
Protocol: as §1

[8] = test system: H322 (lung carcinoma); assay: Cytotoxicity (sulphorhodamine B), cancer cell line, Table 1B; format: cell-based; settings: NCI-H322, 72 h
Protocol: as §1

[9] = test system: BT-549 (breast carcinoma); assay: as above; format: cell-based; settings: Homo sapiens, BT-549, 72 h
Protocol: as §1

[10] = test system: UCLA-P-3 (lung carcinoma); assay: as above; format: cell-based; settings: Homo sapiens, UCLA P-3, 72 h
Protocol: as §1

[11] = test system: RPMI-7666 (normal human PBLs); assay: Cytotoxicity (sulphorhodamine B), normal cell line, Table 1B; format: cell-based; settings: 72 h
Protocol: as §1

[12] = test system: L1210 (mouse leukaemia); assay: Cytotoxicity (sulphorhodamine B), cancer cell line, Table 1B; format: cell-based; settings: L1210, 72 h
Protocol: as §1

[13] = test system: SIHA (cervix carcinoma); assay: as above; format: cell-based; settings: Homo sapiens, SiHa, 72 h
Protocol: as §1

[14] = test system: PC-3 (prostate carcinoma); assay: as above; format: cell-based; settings: Homo sapiens, 72 h
Protocol: as §1

[15] = test system: SK (melanoma); assay: as above; format: cell-based; settings: 72 h
Protocol: as §1

[16] = test system: Capan-1 (pancreatic); assay: as above; format: cell-based; settings: Homo sapiens, CAPAN-1, 72 h
Protocol: as §1

[17] = test system: CHO (normal human mammary); assay: Cytotoxicity (sulphorhodamine B), normal cell line, Table 1B; format: cell-based; settings: Homo sapiens, 72 h
[18] = test system: MOLT-4 (T-cell leukaemia); assay: Cytotoxicity (sulphorhodamine B), cancer cell line, Table 1B; format: cell-based; settings: Homo sapiens, MOLT-4, 72 h
Protocol: as §1

[19] = test system: MCF-7 (breast carcinoma); assay: as above; format: cell-based; settings: Homo sapiens, MCF7, 72 h
Protocol: as §1

[20] = Water solubility in D2O by 1H NMR; settings: d2o
Protocol: The solubilities of the synthesized protaxols in D2 O were determined by 1H NMR spectroscopy.
The resulting mixture was centrifuged for 20 minutes and the supernatant saturated solution was analysed by ^1 H NMR spectroscopy using a Bruker AMX-400 instrument and methanol or pyridine as internal standard. The concentration of the compound was determined by comparing several signals with the CH3 signal of methanol or the NCH signal of pyridine.

[21] = Taxol release from protaxols in aqueous buffer; format: physicochemical; settings: aqueous buffer
Protocol: The derivatives in which the C-7 hydroxyl group was acetylated were extremely unstable in aqueous media losing the C-7 substituent very rapidly. The stability of the synthesized compounds was examined at various pH's and temperatures. […] Table 1A includes the half-lives of six of these compounds at pH 7.5 and 9. […] This illustrates the ability to fine-tune the rate of release of taxol to a desired set of conditions using simple chemical principles.
Protaxol 5 was dissolved in dimethylsulphoxide (DMSO) at 25° C. and immediately added to the appropriate phosphate buffer solution at the specified temperature. Aliquots were analysed using a Waters Maxima system HPLC instrument equipped with auto-injector (3.9×300 mm C18 column equipped with a precolumn; flow rate, 1.5 ml min^-1; eluant, gradient A-B, where A is 80% 100 mM ammonium acetate, buffer pH 6.0, and B is 100% methanol; ultraviolet detector). The per cent taxol released was determined from the relative areas of the peaks corresponding to protaxol 5 and taxol (the conversion was clean, and it was assumed that the two compounds have equal molar extinction coefficients).

[22] = pH 7.5, 37° C., read-out: t1/2 (pH 7.5), 50% taxol release
[23] = pH 9, 37° C., read-out: t1/2 (pH 9), 50% taxol release

SMILES	IC50 [1] [nM]	IC50 [2] [nM]	IC50 [3] [nM]	IC50 [4] [nM]	IC50 [5] [µM]	IC50 [7] [µM]	IC50 [8] [nM]	IC50 [9] [nM]	IC50 [10] [nM]	IC50 [11] [µM]	IC50 [12] [µM]	IC50 [13] [µM]	IC50 [14] [nM]	IC50 [15] [µM]	IC50 [16] [nM]	IC50 [17] [µM]	IC50 [18] [nM]	solubility [20] [µg/mL]	half-life [21, 22] [min]	half-life [21, 23] [min]	other results
CC(=O)O[C@H]1C(=O)[C@@]2(C)[C@H]([C@H](OC(=O)c3ccccc3)[C@]3(O)C[C@H](OC(=O)[C@H](OC(=O)OCCS(=O)(=O)c4ccc(N)cc4)[C@@H](NC(=O)c4ccccc4)c4ccccc4)C(C)=C1C3(C)C)[C@]1(OC(C)=O)CO[C@@H]1C[C@@H]2O [Compound 10]	< 1	1000	1000	< 1	100	10	10	100	< 1	100	10	10	1000	10	< 1	100	< 1				IC50 [6]: < 1 nM; IC50 [19]: 10 µM
CC(=O)O[C@H]1C(=O)[C@]2(C)[C@@H](OC(=O)CSCC(=O)O)C[C@H]3OC[C@@]3(OC(C)=O)[C@H]2[C@H](OC(=O)c2ccccc2)[C@]2(O)C[C@H](OC(=O)[C@H](OC(=O)CSCC(=O)O)[C@@H](NC(=O)c3ccccc3)c3ccccc3)C(C)=C1C2(C)C [Compound 12]	100	1000	1000	< 1	100	10	100	< 1	1	100	1	10	1000	10	< 1	100	< 1				IC50 [19]: 10 µM
CC(=O)O[C@H]1C(=O)[C@@]2(C)[C@H]([C@H](OC(=O)c3ccccc3)[C@]3(O)C[C@H](OC(=O)[C@H](OC(=O)CSCC(=O)O)[C@@H](NC(=O)c4ccccc4)c4ccccc4)C(C)=C1C3(C)C)[C@]1(OC(C)=O)CO[C@@H]1C[C@@H]2O [drawing 6]																		350 (≈ 355 µM)	> 500	300	
CC(=O)O[C@H]1C(=O)[C@@]2(C)[C@H]([C@H](OC(=O)c3ccccc3)[C@]3(O)C[C@H](OC(=O)[C@H](OC(=O)OCCS(=O)(=O)c4ccc([N+](=O)[O-])cc4)[C@@H](NC(=O)c4ccccc4)c4ccccc4)C(C)=C1C3(C)C)[C@]1(OC(C)=O)CO[C@@H]1C[C@@H]2O [drawing 11]																			> 500	7	
CC(=O)O[C@H]1C(=O)[C@]2(C)[C@@H](OC(=O)CSCC(=O)O)C[C@H]3OC[C@@]3(OC(C)=O)[C@H]2[C@H](OC(=O)c2ccccc2)[C@]2(O)C[C@H](OC(=O)[C@H](OC(=O)CSCC(=O)O)[C@@H](NC(=O)c3ccccc3)c3ccccc3)C(C)=C1C2(C)C [drawing 14]																		460 (≈ 411 µM)			
CC(=O)O[C@H]1C(=O)[C@@]2(C)[C@H]([C@H](OC(=O)c3ccccc3)[C@]3(O)C[C@H](OC(=O)[C@H](OC(=O)CS(=O)(=O)CC(=O)O)[C@@H](NC(=O)c4ccccc4)c4ccccc4)C(C)=C1C3(C)C)[C@]1(OC(C)=O)CO[C@@H]1C[C@@H]2O [drawing 7]																		1200 (≈ 1180 µM)	> 500	30	

— US5817840A, “Water soluble taxol derivatives” (The Scripps Research Institute, priority 1997, dated 1998)
